tested on: mice; test: Passive avoidance test (block of cycloheximide-induced amnesia); assay type: in vivo; conditions: Mus musculus, 2 h, intraperitoneal administration two hours prior to training, amnestic agent 30 mg/kg cycloheximide i.p., read-out: minimum effective dose (MED)
Procedure: Passive avoidance is an acute memory paradigm in which mice are allowed to enter a dark compartment from a lighted compartment, but are given a footshock (2 mA for 5 seconds) when they enter the dark compartment. […] If an amnestic agent (30 mg/kg cycloheximide i.p. in saline) immediately after the training session is given to the animals, they will make the transition into the dark compartment (i.e., memory of the shock is lost). Compounds with suspected nootropic or anti-amnestic effects are given by i.p. administration two hours prior to the training trial in attempt to block the effects of cycloheximide. […] This behavioral response is defined as passive avoidance. A no effect response in this test is defined as a failure to stay in the lighted compartment for 120 seconds.

| SMILES | minimal effective dose [mg/kg] |
| --- | --- |
| CCOC(=O)c1ccc(NC(=O)CCn2cnc3c(=O)n(CCN(C)C)cnc32)cc1 [Example 4, 4-[3-(1-(2-dimethylaminoethyl)-6-oxo-1,6-dihydropurin-9-yl)propionylamino]benzoic acid ethyl ester] | 1 |
| CCOC(=O)c1ccc(NC(=O)CCn2cnc3c(N(C)C)ncnc32)cc1 [Example 7, 4-[3-(6-dimethylaminopurin-9-yl)propionylamino]benzoic acid ethyl ester] | 0.01 |
| CCCCn1cnc2c(ncn2CCC(=O)Nc2ccc(C(=O)OCC)cc2)c1=O [Example 2, 4-[3-(1-butyl-6-oxo-1,6-dihydropurin-9-yl)propionylamino]benzoic acid ethyl ester] | 0.001 |
| O=C(CCn1cnc2c(=O)n(Cc3ccccc3)cnc21)NCCCN1CCCC1=O [Example 13, 3-(1-benzyl-6-oxo-1,6-dihydropurin-9-yl)-N-[3-(2-oxopyrrolidin-1-yl)propyl]propionamide] | 1 |
| CCOC(=O)c1ccc(NC(=O)CCn2cnc3c(=O)n(Cc4ccccc4)cnc32)cc1 [Example 1, 4-[3-(1-benzyl-6-oxo-1,6-dihydropurin-9-yl)propionylamino]benzoic acid ethyl ester] | 0.0003 |
| O=C(CCn1cnc2c(=O)n(Cc3ccccc3)cnc21)NCCNC(=O)CN1CCCC1=O [Example 14, 3-(1-benzyl-6-oxo-1,6-dihydropurin-9-yl)-N-{2-[2-(2-oxopyrrolidin-1-yl)acetylamino]ethyl}propionamide] | 1 |
| COC(=O)c1ccc(N(C)C(=O)CCn2cnc3c(Cl)ncnc32)cc1 [Example 12, 4-{[3-(6-chloropurin-9-yl)propionyl]methylamino}benzoic acid methyl ester] | 0.0001 |
| CCOC(=O)c1ccc(NC(=O)C(C)n2cnc3c(=O)[nH]c(-c4ccccc4)nc32)cc1 (stereo not drawn) [Example 11, 4-[2-(6-oxo-2-phenyl-1,6-dihydropurin-9-yl)propionylamino]benzoic acid ethyl ester] | 10 |
| CCCCc1nc2c(ncn2C(C)C(=O)Nc2ccc(C(=O)OCC)cc2)c(=O)[nH]1 (stereo not drawn) [Example 10, 4-[2-(2-butyl-6-oxo-1,6-dihydropurin-9-yl)propionylamino]benzoic acid ethyl ester] | 0.1 |
| CCOC(=O)c1ccc(NC(=O)CCn2cnc3c(=O)n(C)cnc32)cc1 [Example 3, 4-[3-(1-methyl-6-oxo-1,6-dihydropurin-9-yl)propionylamino]benzoic acid ethyl ester] | 0.1 |
| CCOC(=O)c1ccc(NC(=O)CCn2cnc3c(Cl)nc(N)nc32)cc1 [Example 8, 4-[3-(2-amino-6-chloropurin-9-yl)propionylamino]benzoic acid ethyl ester] | 0.01 |
| CCOC(=O)c1ccc(NC(=O)C(C)n2cnc3c(=O)[nH]c(=S)[nH]c32)cc1 (stereo not drawn) [Example 9, 4-[2-(6-oxo-2-thioxo-1,2,3,6-tetrahydropurin-9-yl)propionylamino]benzoic acid ethyl ester] | 0.0001 |
| CCOC(=O)c1ccc(NC(=O)CCn2cnc3c(=O)[nH]c(=O)[nH]c32)cc1 [Example 5, 4-[3-(2,6-dioxo-1,2,3,6-tetrahydropurin-9-yl)propionylamino]benzoic acid ethyl ester] | 0.001 |

tested on: mice; test: as above; assay type: in vivo; conditions: Mus musculus, oral administration, amnestic agent 30 mg/kg cycloheximide i.p., read-out: minimum effective dose (MED)

| SMILES | minimal effective dose [mg/kg] |
| --- | --- |
| CCOC(=O)c1ccc(NC(=O)CCn2cnc3c(=O)n(Cc4ccccc4)cnc32)cc1 [Example 1, 4-[3-(1-benzyl-6-oxo-1,6-dihydropurin-9-yl)propionylamino]benzoic acid ethyl ester] | 0.01 |
| CCOC(=O)c1ccc(NC(=O)C(C)n2cnc3c(=O)[nH]c(=S)[nH]c32)cc1 (stereo not drawn) [Example 9, 4-[2-(6-oxo-2-thioxo-1,2,3,6-tetrahydropurin-9-yl)propionylamino]benzoic acid ethyl ester] | 0.001 |

— patent US20020156277A1, “Synthesis and methods of use of purine analogues and derivatives” (priority 2001, published 2002)
